Measured values taken from article PMC3031978 (Bioorganic & medicinal chemistry letters, 2010).
Entries after “also recorded” stand apart in the source; their conditions may differ.

Key:
KOR [1] = biological target: T1, KOR (Homo sapiens, UniProt P41145); type: binding
KOR [2] = biological target: T1, KOR; type: binding; remark: listed apart in the source
KOR [3] = biological target: T1, KOR; type: biochemical
[4] = cited from earlier work

T1 sequence (P41145 whole entry): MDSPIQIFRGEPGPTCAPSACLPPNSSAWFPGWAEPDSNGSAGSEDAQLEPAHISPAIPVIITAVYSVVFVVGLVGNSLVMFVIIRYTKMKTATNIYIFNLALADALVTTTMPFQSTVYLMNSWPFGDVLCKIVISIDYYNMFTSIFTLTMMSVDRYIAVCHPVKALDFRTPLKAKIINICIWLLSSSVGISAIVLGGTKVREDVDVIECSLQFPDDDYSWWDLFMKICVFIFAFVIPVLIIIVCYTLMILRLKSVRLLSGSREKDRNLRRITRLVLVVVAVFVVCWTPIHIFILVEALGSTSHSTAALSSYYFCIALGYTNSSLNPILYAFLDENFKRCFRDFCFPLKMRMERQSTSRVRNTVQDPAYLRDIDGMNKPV

| SMILES | displacement of [3H]diprenorphine at KOR (in words) (KOR [1]) | DOR/KOR (KOR [2]) | MOR/KOR (KOR [2]) | affinity at KOR (in words) (KOR [2]) | agonist activity at KOR (in words) (KOR [3]) | stability (in words) [4] |
| --- | --- | --- | --- | --- | --- | --- |
| COC(=O)[C@@H]1C[C@H](OC(=O)[C@H](C)N)C(=O)[C@H]2[C@@]1(C)CC[C@H]1C(=O)O[C@H](c3ccoc3)C[C@]21C [Analogue 10] | did not displace [^3H]diprenorphine; also recorded: did not displace KOR antagonist binding | >2.64 | >2.64 | μM affinity; also recorded: in a μM range |  |  |
| COC(=O)[C@@H]1C[C@H](OC(=O)[C@@H](N)C(C)C)C(=O)[C@H]2[C@@]1(C)CC[C@H]1C(=O)O[C@H](c3ccoc3)C[C@]21C [Analogue 12, 2-(2′-(S)-amino-3-methylbutanoate) salvinorin B] |  | >238 | >238 |  | full agonist |  |
| NCC(=O)O [Gly] |  |  |  |  |  | unstable |
| CNCC(=O)O [Sar] |  |  |  |  |  | unstable |
